Series [1] can be described thus: Radiotracer incubation in buffer only (control, without any cell line), radio-TLC. Particulars: reference incubation without any cell lines. It counts as in vitro ADME. The method, then:
HepG2 cells were cultured in DMEM GlutaMax (Gibco, Paisley, UK) with 10% fetal calf serum (FCS) and with selective antibiotics (penicillin/streptomycin for wildtype, Zeocin (InvivoGen, San Diego, CA, USA) for CYP1A2, and Blasticidin (Gibco, Carlsbad, CA, USA) for CYP2C19 and CYP3A4 cultures). As a negative control, cultures of CHO cultivated in Ham’s F-12 medium (Gibco) with 10% FCS and 2 mM glutamine were added for the radiotracer experiments. Cells were handled under a laminar flow hood (Thermo Scientific^TM Safe 2020, Langenselbold, Germany) and were split once or twice a week by trypsinization. Cell cultures were stored horizontally in a humidified incubator (Heracell240i) at 37 °C and 5% CO2. During the time of experimental work, the utilized cell lines were regularly checked for mycoplasma. Cells were seeded in duplicates into a 96-well plate (CellStar®) with a density of 3 × 10^5 cells/well and cultured until the next day at 37 °C and 5% CO2. Cell density was determined with a cell counter (CASY® Model TT from Schärfe System, Reutlingen, Germany). Before the addition of substrates, cells were washed twice with Krebs–Henseleit buffer (KHB). The HEPES-supplemented Krebs–Henseleit buffer (pH 7.4, KHB) was freshly prepared using HEPES (5.95 g/L), D-glucose (2.0 g/L), magnesium sulfate (0.141 g/L), potassium dihydrogenphosphate (0.16 g/L), potassium chloride (0.35 g/L), sodium chloride (6.9 g/L), calcium chloride dihydrate (0.373 g/L), and sodium bicarbonate (2.1 g/L), followed by adjustment to pH 7.4 with NaOH. […]
(§1) Incubations with radiotracer compounds were conducted, on the one hand, with radioactive ^18F-labeled compounds alone (time dependency) and, on the other hand, in the presence of 50 µM nonradioactive reference (carrier addition). For the investigation of a time-dependent metabolite formation, 2 µL aliquots were withdrawn from the supernatant, directly spotted onto the TLC plate, and analyzed as described above. […]

The subject of series [2] is HepG2 CYP1A2. In words: Radiotracer metabolic stability, CYP1A2-overexpressing HepG2 cells. It counts as in vitro ADME, human. Particulars: HepG2 CYP1A2, up to 2 h; radio-TLC. The method, then:
(§2) CYP-overexpressing human hepatocellular carcinoma cells (HepG2) were previously generated on the basis of subcloning human CYP1A2 [18], CYP2C19 [20], and CYP3A4 [21] cDNA into a lentiviral expression vector. The cDNA expression in the resulting vector was controlled by the human cytomegalovirus (CMV) promoter. The lentivirus expression vectors were used to produce recombinant lentivirus particles according to standard methods to infect HepG2 cells. Infected cells were selected with 3 µg/mL blasticidin for CYP2C19 and CYP3A4 and 500 µg/mL zeocin for CYP1A2 overexpression 48 h after infection. Within 3–4 weeks, antibiotic-resistant cell colonies were picked to obtain single cell-derived HepG2 clones. For more detailed information on the generation procedure of CYP-overexpressing HepG2 cells, see Steinbrecht et al..
HepG2 cells were cultured in DMEM GlutaMax (Gibco, Paisley, UK) with 10% fetal calf serum (FCS) and with selective antibiotics (penicillin/streptomycin for wildtype, Zeocin (InvivoGen, San Diego, CA, USA) for CYP1A2, and Blasticidin (Gibco, Carlsbad, CA, USA) for CYP2C19 and CYP3A4 cultures). […] Cell density was determined with a cell counter (CASY® Model TT from Schärfe System, Reutlingen, Germany). […]
as §1
UPLC–MS analyses were performed to verify the degradation behavior of the test compounds and to gain insights into the identity of the formed metabolites. […] Additionally, incubations with the nonradioactive references were carried out with 100 nM or 50 µM (according to the carrier-added samples) and analyzed. UPLC–MS/MS was performed using System 2 (55% isocratic elution for quantification of intact compound, or 25–75% gradient for nonradioactive metabolite analysis). […]

A further series concerns HepG2 CYP3A4. Nature of the series: Radiotracer metabolic stability, CYP3A4-overexpressing HepG2 cells. Particulars: HepG2 CYP3A4; radio-TLC. It counts as in vitro ADME, human. Here is the method:
as §2
HepG2 cells were cultured in DMEM GlutaMax (Gibco, Paisley, UK) with 10% fetal calf serum (FCS) and with selective antibiotics (penicillin/streptomycin for wildtype, Zeocin (InvivoGen, San Diego, CA, USA) for CYP1A2, and Blasticidin (Gibco, Carlsbad, CA, USA) for CYP2C19 and CYP3A4 cultures). As a negative control, cultures of CHO cultivated in Ham’s F-12 medium (Gibco) with 10% FCS and 2 mM glutamine were added for the radiotracer experiments. […] Cell density was determined with a cell counter (CASY® Model TT from Schärfe System, Reutlingen, Germany). […]

In series [3] the test system is HepG2 CYP2C19. Nature of the series: Radiotracer metabolic stability, CYP2C19-overexpressing HepG2 cells. Particulars: radio-TLC. It counts as in vitro ADME, human. Here is the method: as §2
HepG2 cells were cultured in DMEM GlutaMax (Gibco, Paisley, UK) with 10% fetal calf serum (FCS) and with selective antibiotics (penicillin/streptomycin for wildtype, Zeocin (InvivoGen, San Diego, CA, USA) for CYP1A2, and Blasticidin (Gibco, Carlsbad, CA, USA) for CYP2C19 and CYP3A4 cultures). As a negative control, cultures of CHO cultivated in Ham’s F-12 medium (Gibco) with 10% FCS and 2 mM glutamine were added for the radiotracer experiments. Cells were handled under a laminar flow hood (Thermo Scientific^TM Safe 2020, Langenselbold, Germany) and were split once or twice a week by trypsinization. Cell cultures were stored horizontally in a humidified incubator (Heracell240i) at 37 °C and 5% CO2. During the time of experimental work, the utilized cell lines were regularly checked for mycoplasma. Cells were seeded in duplicates into a 96-well plate (CellStar®) with a density of 3 × 10^5 cells/well and cultured until the next day at 37 °C and 5% CO2. Cell density was determined with a cell counter (CASY® Model TT from Schärfe System, Reutlingen, Germany). Before the addition of substrates, cells were washed twice with Krebs–Henseleit buffer (KHB). The HEPES-supplemented Krebs–Henseleit buffer (pH 7.4, KHB) was freshly prepared using HEPES (5.95 g/L), D-glucose (2.0 g/L), magnesium sulfate (0.141 g/L), potassium dihydrogenphosphate (0.16 g/L), potassium chloride (0.35 g/L), sodium chloride (6.9 g/L), calcium chloride dihydrate (0.373 g/L), and sodium bicarbonate (2.1 g/L), followed by adjustment to pH 7.4 with NaOH. The utilized substances within this study were neither found (see Supplementary Materials, Figure S14) nor reported to be cytotoxic within the utilized concentration range and incubation duration.
Incubations with radiotracer compounds were conducted, on the one hand, with radioactive ^18F-labeled compounds alone (time dependency) and, on the other hand, in the presence of 50 µM nonradioactive reference (carrier addition). For the investigation of a time-dependent metabolite formation, 2 µL aliquots were withdrawn from the supernatant, directly spotted onto the TLC plate, and analyzed as described above. The same procedure was performed for carrier-added samples.
UPLC–MS analyses were performed to verify the degradation behavior of the test compounds and to gain insights into the identity of the formed metabolites. Using radiotracer incubation samples, 40 µL aliquots of the carrier-added incubations were withdrawn followed by addition of 160 µL of ACN and centrifugation (14,000 rpm (18,800–20,800× g), 4 °C, 5 min). Samples were frozen at −20 °C, and activity was allowed to decay before further mass-spectrometric analyses. Additionally, incubations with the nonradioactive references were carried out with 100 nM or 50 µM (according to the carrier-added samples) and analyzed. UPLC–MS/MS was performed using System 2 (55% isocratic elution for quantification of intact compound, or 25–75% gradient for nonradioactive metabolite analysis). The MRM mode was optimized with a solution of respective reference compounds diluted in eluent. […]

The subject of series [4] is HepG2 CYP1A2. Nature of the series: Competitive coincubation of [18F]1 with competitors, HepG2 CYP1A2. The note with it: 1 h; competitor 1 or 10 µM. The method, then: (§3) Radio thin-layer chromatography (radio-TLC) was carried out on reversed-phase TLC plates (ALUGRAM RP-18W/UV254 from Macherey-Nagel, Düren, Germany) with a mobile phase of 45% ACN in water containing 0.1% trifluoroacetic acid. The samples (2 µL) were spotted onto the TLC plate. The line of origin and the front line were labeled with 1/5 of the sample activity concentration. To track the Rf value of the intact radiotracer, each TLC was spotted with the intact tracer as reference in the middle. Detection of the activity signals was achieved after 10–30 min development on radioluminographic imaging plates (FUJIFILM, Tokyo, Japan) and subsequent readout with Fuji BAS 5000® or Amersham™ Typhoon™ from GE Healthcare (Uppsala, Sweden). The resulting chromatographic profile was analyzed and integrated with the help of AIDA Image Analysis Software (version 5.1). For data depiction, the fraction of each species (intact radiotracer, metabolite, [^18F]fluoride) was plotted.
(§4) Incubations were conducted for up to 2 h in a 96-well plate in KHB with a total incubation volume of 50 µL and an ethanol concentration of 0.4%. For the incubation with radiotracers, an activity of 100–200 kBq/well at the start of the experiment was used.
(§5) Our last interest within this study was to test if the tracer itself could function as an indicator for the conversion of other substrates acting via inhibition of or competition with the CYP enzymes. In this regard, alternative substrates were added to the incubation mixtures with [^18F]1. The investigated substrates covered testosterone, caffeine, progesterone, compound 3, tebufelone, and RWJ63556 [44] (10 µM for all substances). Furthermore, the influence of testosterone on the metabolic turnover of [^18F]1 was investigated over a concentration range of 1–50 µM.
Figure 7 Coincubation of [^18F]1 and different competitors with (A) HepG2 CYP1A2 and (B) HepG2 CYP2C19. […] Each competitor/inhibitor was incubated with [^18F]1 for 1 h followed by radio-TLC analysis. Activity concentrations of 94–197 kBq/well (1.9–3.9 MBq/mL) were used at start of experiment, which correspond to a concentration of 120–125 nM. Statistical analysis performed with Dunnett’s multiple comparison (post hoc test) according to the intact tracer amount (* p < 0.05; *** p < 0.001; **** p < 0.0001; n = 4).

The subject of series [5] is HepG2 CYP2C19. In words: Competitive coincubation of [18F]1 with competitors, HepG2 CYP2C19. The note with it: 1 h, competitor 10 µM. Here is the method: as §3, §4, §5
Figure 7 Coincubation of [^18F]1 and different competitors with (A) HepG2 CYP1A2 and (B) HepG2 CYP2C19. […] Each competitor/inhibitor was incubated with [^18F]1 for 1 h followed by radio-TLC analysis. […]

Another series relates to HepG2 cells. In words: Testosterone control incubation (conversion to androstenedione), LC-MS/MS. The note with it: 2.5 µM testosterone; within 2 h; 3 × 10^5 cells/well in 96-well plate.

The structures appear in SMILES notation.

Turning to `[2H]C([2H])([18F])c1cc(-c2ccc(C)cc2)n(-c2ccc(S(C)(=O)=O)cc2)n1` [[^18F]2, 3-([D2, ^18F]fluoromethyl)-1-[4-(methylsulfonyl)phenyl]-5-(p-tolyl)-1H-pyrazole], the “Defluorination without additional enzymes in the incubation buffer (KHB)” value in series [1] is recorded as “to a minor extent”.

Consider `Cc1ccc(-c2cc(CC[18F])nn2-c2ccc(S(C)(=O)=O)cc2)cc1` [[^18F]3, 3-([^18F]fluoroethyl)-1-[4-(methylsulfonyl)phenyl]-5-(p-tolyl)-1H-pyrazole], for which the “Metabolic turnover / stability of radiotracer (in words)” value was “pronounced slower degradation” with HepG2 CYP1A2 [2] and “pronounced slower degradation” with HepG2 CYP2C19 [3] (HepG2 CYP2C19, up to 2 h). Besides, the “Summarized percentage of metabolites” value with HepG2 CYP3A4 is “below 3%”. The Defluorination result in the series with HepG2 CYP2C19 [3] (1 h incubation) is listed as “only noted during incubation with HepG2 CYP2C19”.

Turning to `Cn1c(=O)c2c(ncn2C)n(C)c1=O` [caffeine], the “Effect of coincubation on metabolic profile / intact [18F]1 (in words)” value with HepG2 CYP1A2 [4] is listed as “no change in the metabolic profile”.

On to `Cc1ccc(-c2cc(CCF)nn2-c2ccc(S(C)(=O)=O)cc2)cc1` [compound 3], for which the “Effect of coincubation on metabolic profile / intact [18F]1 (in words)” value in the series with HepG2 CYP1A2 [4] is “slightly increased the intact tracer amount”.

For `CC(=O)[C@H]1CC[C@H]2[C@@H]3CCC4=CC(=O)CC[C@]4(C)[C@H]3CC[C@]12C` [progesterone], the “Effect of coincubation on metabolic profile / intact [18F]1 (in words)” value in the series with HepG2 CYP1A2 [4] is reported as “no change in the metabolic profile”. For the same molecule, in the series on HepG2 CYP2C19 [5], the “Increase of intact tracer [18F]1 versus incubation without additional substances” value is reported as “twofold”.

With `C[C@]12CC[C@H]3[C@@H](CCC4=CC(=O)CC[C@@]43C)[C@@H]1CC[C@@H]2O` [testosterone], the “Effect of coincubation on metabolic profile / intact [18F]1 (in words)” value in the series with HepG2 CYP1A2 [4] was “no change in the metabolic profile”. Moreover, in the series on HepG2 CYP2C19 [5] (testosterone 1–50 µM), the “Effect of coincubation on intact [18F]1 amount (in words)” value is “slight increase in the amount of intact radiotracer”. Moreover, the Testosterone consumed entry with HepG2 cells is “more than 50%”.

Values taken from PMC9368227, “Investigation of Radiotracer Metabolic Stability In Vitro with CYP-Overexpressing Hepatoma Cell Lines” (Cells, 2022).
